Each structure is given as a SMILES string.

In ChEMBL document CHEMBL1143307, “Small-molecule perturbation of competing interactions between c-Myc and Max” (Bioorg Med Chem Lett, 2009) one finds fold change (FC) and Activity data, which are given here for one compound.

Assay [1] is described as follows: Decrease in c-Myc-p21MAX heterodimer binding to E-box DNA at 50 uM by EMSA method.
Assay [2] in a line: Binding affinity to fluorescently tagged c-Myc-p21MAX heterodimer assessed as competitive constant by using fluorescence polarization titration.

In assay [1], `CCc1ccc(/C=C2\SC(=S)NC2=O)cc1` yielded a fold change (FC) of 2. In addition, the Activity in assay [2] stood at 12.
